# Experimental data from PubChem BioAssay (NCI).
#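 These data come from cells grown in 96-well plates and exposed to compound for 48 hours at five concentrations. GI50 marks 50% less growth. The concentration for full growth arrest is given as TGI.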
# Assays:
# Experiment in all cases: NCI tumour cell line growth inhibition, 48 h
# [1] = system: SK-MEL-28 melanoma
# [2] = system: SF-268 CNS
# [3] = system: COLO 205 colon
# [4] = system: OVCAR-5 ovarian
# [5] = system: OVCAR-4 ovarian
# [6] = system: SK-MEL-5 melanoma
# [7] = system: OVCAR-8 ovarian
# [8] = system: KM12 colon
# [9] = system: BT-549 breast
# [10] = system: HCT-116 colon
# [11] = system: HS 578T breast
# [12] = system: 786-0 renal
# [13] = system: IGROV1 ovarian
# [14] = system: SF-295 CNS
# [15] = system: UO-31 renal
# [16] = system: TK-10 renal
# [17] = system: MALME-3M melanoma
# [18] = system: NCI-H23 lung
# [19] = system: K-562 leukemia
# [20] = system: NCI/ADR-RES ovarian
# [21] = system: M14 melanoma
# [22] = system: HOP-62 NSCLC
# [23] = system: PC-3 prostate
# [24] = system: SW-620 colon
# [25] = system: CAKI-1 renal
# [26] = system: MOLT-4 leukemia
# [27] = system: HCC-2998 colon
# [28] = system: RPMI-8226 leukemia
# [29] = system: A549 NSCLC
# [30] = system: HT29 colon
# [31] = system: HL-60(TB) leukemia
# [32] = system: UACC-257 melanoma
# [33] = system: OVCAR-3 ovarian
# [34] = system: DU-145 prostate
# [35] = system: CCRF-CEM leukemia
# [36] = system: SNB-19 CNS
# [37] = system: HOP-92 NSCLC
# [38] = system: EKVX NSCLC
# [39] = system: MDA-MB-435
# [40] = system: MDA-MB-231 breast
# [41] = system: NCI-H522 lung
# [42] = system: HCT-15 colon
# [43] = system: UACC-62 melanoma
# [44] = system: SR leukemia
# [45] = system: RXF 393 renal
# [46] = system: LOX IMVI melanoma
# [47] = system: SK-MEL-2 melanoma
# [48] = system: NCI-H460 lung
# [49] = system: SN12C renal
# [50] = system: A498 renal
# [51] = system: SF-539 CNS
# [52] = system: SNB-75 CNS
# [53] = system: U251 CNS
# [54] = system: NCI-H226 lung
# [55] = system: MCF7 breast
# [56] = system: ACHN renal
smiles,measurement,setting,value
O=C(Nc1ccc(F)cc1F)c1cc(F)ccc1O,GI50,[1],2.77 µM
same,TGI,[1],13.2 µM
same,GI50,[2],3.34 µM
same,TGI,[2],67.1 µM
same,GI50,[3],2.08 µM
same,TGI,[3],5.06 µM
same,GI50,[4],3.18 µM
same,TGI,[4],> 100 µM
same,GI50,[5],2.59 µM
same,TGI,[5],> 100 µM
same,GI50,[6],1.27 µM
same,TGI,[6],2.81 µM
same,GI50,[7],3.44 µM
same,TGI,[7],> 100 µM
same,GI50,[8],2.76 µM
same,TGI,[8],10.6 µM
same,GI50,[9],2.43 µM
same,TGI,[9],6.75 µM
same,GI50,[10],2.91 µM
same,TGI,[10],11.1 µM
same,GI50,[11],2.37 µM
same,TGI,[11],9.14 µM
same,GI50,[12],3.19 µM
same,TGI,[12],16.2 µM
same,GI50,[13],2.58 µM
same,TGI,[13],> 100 µM
same,GI50,[14],1.99 µM
same,TGI,[14],4.36 µM
same,GI50,[15],1.96 µM
same,TGI,[15],7.16 µM
same,GI50,[16],4.48 µM
same,TGI,[16],> 100 µM
same,GI50,[17],2.04 µM
same,TGI,[17],7.66 µM
same,GI50,[18],2.07 µM
same,TGI,[18],6.62 µM
same,GI50,[19],2.41 µM
same,TGI,[19],> 100 µM
same,GI50,[20],2.81 µM
same,TGI,[20],9.78 µM
same,GI50,[21],2.82 µM
same,TGI,[21],13.2 µM
same,GI50,[22],2.9 µM
same,TGI,[22],47.2 µM
same,GI50,[23],2.61 µM
same,TGI,[23],9.53 µM
same,GI50,[24],3.15 µM
same,TGI,[24],> 100 µM
same,GI50,[25],2.37 µM
same,TGI,[25],11.6 µM
same,GI50,[26],2.63 µM
same,TGI,[26],6.88 µM
same,GI50,[27],3.12 µM
same,TGI,[27],13.1 µM
same,GI50,[28],1.4 µM
same,TGI,[28],5.01 µM
same,GI50,[29],3.04 µM
same,TGI,[29],> 100 µM
same,GI50,[30],3.37 µM
same,TGI,[30],> 100 µM
same,GI50,[31],2.33 µM
same,TGI,[31],5.38 µM
same,GI50,[32],2.26 µM
same,TGI,[32],7.32 µM
same,GI50,[33],2.77 µM
same,TGI,[33],21.9 µM
same,GI50,[34],3.62 µM
same,TGI,[34],> 100 µM
same,GI50,[35],3.35 µM
same,TGI,[35],> 100 µM
same,GI50,[36],3.17 µM
same,TGI,[36],> 100 µM
same,GI50,[37],0.569 µM
same,TGI,[37],3.59 µM
same,GI50,[38],2.23 µM
same,TGI,[38],10.5 µM
same,GI50,[39],2.86 µM
same,TGI,[39],34.2 µM
same,GI50,[40],1.9 µM
same,TGI,[40],4.9 µM
same,GI50,[41],2.59 µM
same,TGI,[41],> 100 µM
same,GI50,[42],2.92 µM
same,TGI,[42],> 100 µM
same,GI50,[43],1.38 µM
same,TGI,[43],4.12 µM
same,GI50,[44],3.95 µM
same,TGI,[44],> 100 µM
same,GI50,[45],2.49 µM
same,TGI,[45],8.33 µM
same,GI50,[46],3.39 µM
same,TGI,[46],12.1 µM
same,GI50,[47],2.48 µM
same,TGI,[47],6.54 µM
same,GI50,[48],2.94 µM
same,TGI,[48],> 100 µM
same,GI50,[49],2.2 µM
same,TGI,[49],8.02 µM
same,GI50,[50],1.84 µM
same,TGI,[50],5.53 µM
same,GI50,[51],2.85 µM
same,TGI,[51],12.3 µM
same,GI50,[52],3.19 µM
same,TGI,[52],30.7 µM
same,GI50,[53],2.95 µM
same,TGI,[53],> 100 µM
COc1ccc(/C=C/C(=O)c2ccc(Cl)cc2Cl)cc1,GI50,[1],34 µM
same,TGI,[1],73.1 µM
same,GI50,[2],19 µM
same,TGI,[2],41.1 µM
same,GI50,[3],32 µM
same,TGI,[3],> 100 µM
same,GI50,[4],25.5 µM
same,TGI,[4],78.5 µM
same,GI50,[6],17.9 µM
same,TGI,[6],39 µM
same,GI50,[7],21.3 µM
same,TGI,[7],55.9 µM
same,GI50,[8],13.8 µM
same,TGI,[8],40.5 µM
same,GI50,[9],16.7 µM
same,TGI,[9],36.8 µM
same,GI50,[10],9.05 µM
same,TGI,[10],24.5 µM
same,GI50,[11],26.2 µM
same,TGI,[11],65.4 µM
same,GI50,[12],13.9 µM
same,TGI,[12],30.7 µM
same,GI50,[13],20.5 µM
same,TGI,[13],59 µM
same,GI50,[14],20.4 µM
same,TGI,[14],53.4 µM
same,GI50,[15],29.1 µM
same,TGI,[15],94.5 µM
same,GI50,[16],18.9 µM
same,TGI,[16],37.4 µM
same,GI50,[18],18.8 µM
same,TGI,[18],42.8 µM
same,GI50,[19],3.37 µM
same,TGI,[19],> 100 µM
same,GI50,[20],15.9 µM
same,TGI,[20],41.5 µM
same,GI50,[22],20.3 µM
same,TGI,[22],48.8 µM
same,GI50,[23],6.1 µM
same,TGI,[23],21.9 µM
same,GI50,[24],9.36 µM
same,TGI,[24],> 100 µM
same,GI50,[54],20.4 µM
same,TGI,[54],46.6 µM
same,GI50,[25],23.7 µM
same,TGI,[25],50.1 µM
same,GI50,[26],3.53 µM
same,TGI,[26],> 100 µM
same,GI50,[28],3.03 µM
same,TGI,[28],6.31 µM
same,GI50,[29],21.4 µM
same,TGI,[29],53.6 µM
same,GI50,[30],33.8 µM
same,TGI,[30],> 100 µM
same,GI50,[31],9.98 µM
same,TGI,[31],38.1 µM
same,GI50,[33],18.9 µM
same,TGI,[33],39 µM
same,GI50,[34],16 µM
same,TGI,[34],33.1 µM
same,GI50,[36],21.5 µM
same,TGI,[36],75.3 µM
same,GI50,[55],9.75 µM
same,TGI,[55],27.5 µM
same,GI50,[38],20.1 µM
same,TGI,[38],47.3 µM
same,GI50,[39],11.9 µM
same,TGI,[39],44.5 µM
same,GI50,[56],17.3 µM
same,TGI,[56],33.8 µM
same,GI50,[40],20.5 µM
same,TGI,[40],46.7 µM
same,GI50,[41],30.1 µM
same,TGI,[41],> 100 µM
same,GI50,[42],12.2 µM
same,TGI,[42],37 µM
same,GI50,[43],15 µM
same,TGI,[43],30.3 µM
same,GI50,[44],1.88 µM
same,TGI,[44],> 100 µM
same,GI50,[45],12.7 µM
same,TGI,[45],29.9 µM
same,GI50,[46],15.9 µM
same,TGI,[46],32.1 µM
same,GI50,[47],24.4 µM
same,TGI,[47],70.9 µM
same,GI50,[48],19.2 µM
same,TGI,[48],41.3 µM
same,GI50,[49],20.4 µM
same,TGI,[49],43.2 µM
same,GI50,[50],10.7 µM
same,TGI,[50],24.2 µM
same,GI50,[51],18.9 µM
same,TGI,[51],37.8 µM
same,GI50,[52],22.2 µM
same,TGI,[52],44.1 µM
same,GI50,[53],13.2 µM
same,TGI,[53],31.3 µM
